Data reported in ChEMBL document CHEMBL1153328, “5-Aminomethylbenzimidazoles as potent ITK antagonists” (Bioorg Med Chem Lett, 2009).
≈ marks a conversion by molar mass, not a printed value.

Tests used:
[1] = system: T-cell; experiment: Inhibition of anti-CD3 and anti-CD28 monoclonal antibody-stimulated IL2 secretion in human CD4+ T cells; type: functional, cell-based
[2] = target: Insulin receptor (Homo sapiens, UniProt P06213); experiment: Inhibition of IRK
[3] = target: T1, Tyrosine-protein kinase ITK/TSK (Homo sapiens, UniProt Q08881); experiment: Inhibition of ITK in presence of 1 mM ATP
T1 sequence (Q08881 whole entry): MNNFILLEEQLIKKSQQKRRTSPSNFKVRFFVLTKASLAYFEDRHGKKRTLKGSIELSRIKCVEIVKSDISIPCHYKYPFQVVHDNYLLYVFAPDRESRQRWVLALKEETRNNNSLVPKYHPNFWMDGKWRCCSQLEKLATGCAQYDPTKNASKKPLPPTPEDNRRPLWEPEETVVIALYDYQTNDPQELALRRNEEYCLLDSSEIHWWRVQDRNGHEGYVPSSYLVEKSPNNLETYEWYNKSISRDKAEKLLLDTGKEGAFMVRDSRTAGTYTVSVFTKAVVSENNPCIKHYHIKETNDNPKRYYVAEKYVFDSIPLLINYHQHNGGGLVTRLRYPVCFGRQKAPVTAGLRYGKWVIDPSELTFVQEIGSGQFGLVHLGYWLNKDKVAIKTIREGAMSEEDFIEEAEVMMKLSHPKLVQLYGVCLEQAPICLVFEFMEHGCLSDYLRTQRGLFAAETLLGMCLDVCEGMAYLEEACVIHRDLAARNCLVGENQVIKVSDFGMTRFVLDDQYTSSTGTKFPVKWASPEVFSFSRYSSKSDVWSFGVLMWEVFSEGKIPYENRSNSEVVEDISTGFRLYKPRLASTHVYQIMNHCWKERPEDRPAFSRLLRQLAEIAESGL

[4] = AUC (0 to infinity) in Sprague-Dawley rat at 10 mg/kg, po; type: ADME, organism-based; set-up: time infinity, dose 10 mg/kg, route oral; settings: plasma
[5] = Oral bioavailability in Sprague-Dawley rat at 10 mg/kg; type: ADME, organism-based; settings: in vivo
[6] = system: Mus musculus; experiment: Inhibition of anti-CD3-stimulated IL2 production in po dosed BALB/c mouse administered 5 hrs before anti-CD3 challenge measured after 3 hrs; type: functional, organism-based
[7] = Volume of distribution at steady state in Sprague-Dawley rat at 1 mg/kg, iv; type: ADME, organism-based; set-up: dose 1 mg/kg, route intravenous; settings: in vivo, read-out: Vdss
[8] = Terminal half life in Sprague-Dawley rat at 1 mg/kg, iv; type: ADME, organism-based; set-up: dose 1 mg/kg, route intravenous; settings: in vivo, read-out: beta t1/2 (converted)
[9] = Plasma clearance in Sprague-Dawley rat at 1 mg/kg, iv; type: ADME, organism-based; set-up: dose 1 mg/kg, route intravenous
[10] = Terminal plasma concentration in BALB/c mouse at 15 mg/kg, po after 8 hrs; type: ADME, organism-based; set-up: dose 15 mg/kg, route oral; settings: read-out: Cp(T)
[11] = target: T1, Tyrosine-protein kinase ITK/TSK; experiment: Antagonist activity at human ITK expressed in BTK deficient DT40 cells assessed as inhibition of B cell receptor-stimulated calcium influx; type: functional, cell-based
[12] = system: Blood; experiment: Inhibition of staphylococcal entertoxin B-stimulated IL2 secretion in human whole blood; type: functional, tissue-based
[13] = Terminal plasma concentration in BALB/c mouse at 5 mg/kg, po after 8 hrs; type: ADME, organism-based; set-up: dose 5 mg/kg, route oral; settings: read-out: Cp(T)
[14] = AUC (0 to infinity) in Sprague-Dawley rat at 1 mg/kg, iv; type: ADME, organism-based; set-up: time infinity, dose 1 mg/kg, route intravenous; settings: plasma
[15] = Terminal plasma concentration in BALB/c mouse at 1.5 mg/kg, po after 8 hrs; type: ADME, organism-based; set-up: dose 1.5 mg/kg, route oral; settings: read-out: Cp(T)
[16] = system: Mus musculus; experiment: Inhibition of anti-CD3-stimulated IL4 production in po dosed BALB/c mouse administered 5 hrs before anti-CD3 challenge measured after 3 hrs; type: functional, organism-based
[17] = Tmax in Sprague-Dawley rat at 10 mg/kg, po; type: ADME, organism-based; set-up: dose 10 mg/kg, route oral; settings: in vivo
[18] = target: T1, Tyrosine-protein kinase ITK/TSK; experiment: Binding affinity to ITK by DELFIA-based molecular assay
[19] = Cmax in Sprague-Dawley rat at 10 mg/kg, po; type: ADME, organism-based; set-up: dose 10 mg/kg, route oral; settings: in vivo
[20] = Protein binding in plasma by dialysis method; type: ADME, cell-free; settings: read-out: PPB (converted)
[21] = Solubility at pH 7; type: physicochemical; settings: buffer

Sequence of Insulin receptor (P06213 28-758 limits assumed): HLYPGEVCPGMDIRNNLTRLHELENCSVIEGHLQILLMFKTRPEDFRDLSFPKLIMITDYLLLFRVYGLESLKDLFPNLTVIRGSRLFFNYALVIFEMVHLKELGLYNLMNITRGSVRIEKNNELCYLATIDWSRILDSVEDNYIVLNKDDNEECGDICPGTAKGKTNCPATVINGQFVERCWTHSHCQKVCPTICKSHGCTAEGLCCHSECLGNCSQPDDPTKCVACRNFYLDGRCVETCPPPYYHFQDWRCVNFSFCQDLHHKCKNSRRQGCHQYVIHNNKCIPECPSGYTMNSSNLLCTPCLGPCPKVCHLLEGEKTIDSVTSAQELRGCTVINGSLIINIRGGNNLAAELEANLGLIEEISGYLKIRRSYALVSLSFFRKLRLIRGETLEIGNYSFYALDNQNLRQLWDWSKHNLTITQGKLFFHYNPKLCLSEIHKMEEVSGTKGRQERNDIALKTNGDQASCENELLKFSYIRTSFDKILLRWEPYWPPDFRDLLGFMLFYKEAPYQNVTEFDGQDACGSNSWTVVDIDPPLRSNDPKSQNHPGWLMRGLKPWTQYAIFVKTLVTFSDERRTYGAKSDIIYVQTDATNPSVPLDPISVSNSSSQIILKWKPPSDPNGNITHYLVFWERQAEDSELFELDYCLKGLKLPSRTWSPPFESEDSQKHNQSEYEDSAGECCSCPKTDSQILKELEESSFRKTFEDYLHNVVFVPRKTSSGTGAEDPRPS
Sequence of Insulin receptor (P06213 763-1382 limits assumed): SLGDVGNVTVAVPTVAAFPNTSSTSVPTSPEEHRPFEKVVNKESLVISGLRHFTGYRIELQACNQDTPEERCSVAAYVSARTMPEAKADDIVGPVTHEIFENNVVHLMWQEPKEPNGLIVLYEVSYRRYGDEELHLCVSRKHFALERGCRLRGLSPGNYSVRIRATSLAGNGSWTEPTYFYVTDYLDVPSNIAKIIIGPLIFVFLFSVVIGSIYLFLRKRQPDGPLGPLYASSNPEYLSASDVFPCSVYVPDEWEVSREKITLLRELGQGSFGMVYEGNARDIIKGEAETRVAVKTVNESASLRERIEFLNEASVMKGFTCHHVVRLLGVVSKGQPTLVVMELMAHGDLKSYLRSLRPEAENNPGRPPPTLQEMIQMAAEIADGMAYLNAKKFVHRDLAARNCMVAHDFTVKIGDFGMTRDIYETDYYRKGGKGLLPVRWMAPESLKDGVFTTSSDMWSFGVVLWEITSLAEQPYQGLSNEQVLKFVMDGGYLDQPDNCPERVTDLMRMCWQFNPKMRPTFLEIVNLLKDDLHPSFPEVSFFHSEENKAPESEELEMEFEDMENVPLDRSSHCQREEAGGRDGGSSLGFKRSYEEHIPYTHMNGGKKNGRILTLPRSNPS

## CC(C)CNCc1ccc2c(c1)nc(NC(=O)c1ccc(-c3cn[nH]c3)s1)n2CC(C)(C)O
[1]
  IC50: 86 nM
[2]
  IC50: 360 nM

## Cc1ncc(-c2ccc(C(=O)/N=c3\[nH]c4cc(CN(C)C5CCCCC5)ccc4n3CC(C)(C)O)s2)o1
[1]
  IC50: 230 nM
[2]
  IC50: 350 nM

## C[C@H](NCc1ccc2c(c1)[nH]/c(=N\C(=O)c1ccc(-c3cn[nH]c3)s1)n2CC(C)(C)O)C(C)(C)C
[3]
  IC50: 13 nM
[4]
  AUC(0-inf): 659 ng·h/mL
[5]
  bioavailability: 21%
[6]
  Activity: Dose-dependent effect
[7]
  Vd: 11.6 L/kg
[8]
  half-life: 2.5 h
[9]
  clearance: 53.1 mL/min/kg
[10]
  concentration at 8 h: 1300 nM
[11]
  IC50: 4 nM
[12]
  IC50: 240 nM
[13]
  concentration at 8 h: 400 nM
[14]
  AUC(0-inf): 314 ng·h/mL
[15]
  concentration at 8 h: 100 nM
[1]
  IC50: 20 nM
[16]
  Activity: Dose-dependent effect
[2]
  IC50: 160 nM
[17]
  Tmax: 1.2 h
[18]
  IC50: 1 nM
[19]
  Cmax: 92 ng/mL

## CC1COCC(C)N1Cc1ccc2c(c1)[nH]/c(=N\C(=O)c1ccc(-c3cn[nH]c3)s1)n2CC(C)(C)O (centres undefined)
[3]
  IC50: 98 nM
[11]
  IC50: 3 nM
[1]
  IC50: 46 nM
[2]
  IC50: 320 nM
[18]
  IC50: 1 nM

## CC(C)(O)Cn1/c(=N/C(=O)c2ccc(-c3cn[nH]c3)s2)[nH]c2cc(CN3CCC(O)C3)ccc21 (centres undefined)
[3]
  IC50: 310 nM
[11]
  IC50: 130 nM
[2]
  IC50: 420 nM
[18]
  IC50: 2 nM

## Cc1ncc(-c2ccc(C(=O)/N=c3\[nH]c4cc(CNc5ccccc5)ccc4n3CC(C)(C)O)s2)o1
[1]
  IC50: 460 nM

## C[C@@H](N(C)Cc1ccc2c(c1)nc(NC(=O)c1ccc(-c3cn[nH]c3)s1)n2CC(C)(C)O)C(C)(C)C
[3]
  IC50: 20 nM
[11]
  IC50: 2 nM
[1]
  IC50: 64 nM
[2]
  IC50: 230 nM
[18]
  IC50: 1 nM

## C[C@H](N(C)Cc1ccc2c(c1)[nH]/c(=N\C(=O)c1ccc(-c3cn[nH]c3)s1)n2CC(C)(C)O)C(C)(C)C
[3]
  IC50: 8 nM
[11]
  IC50: 3 nM
[12]
  IC50: 690 nM
[1]
  IC50: 18 nM
[2]
  IC50: 400 nM
[18]
  IC50: 1 nM

## CC(C)(O)Cn1c(NC(=O)c2ccc(-c3cn[nH]c3)s2)nc2cc(CN)ccc21
[3]
  IC50: 900 nM
[11]
  IC50: > 5000 nM
[2]
  IC50: 1200 nM
[18]
  IC50: 4 nM

## C[C@@H](NCc1ccc2c(c1)nc(NC(=O)c1ccc(-c3cn[nH]c3)s1)n2CC(C)(C)O)C(C)(C)C
[3]
  IC50: 20 nM
[11]
  IC50: 3 nM
[1]
  IC50: 50 nM
[2]
  IC50: 93 nM
[18]
  IC50: 1 nM

## Cc1ncc(-c2ccc(C(=O)Nc3nc4cc(CNC5CCCCC5)ccc4n3CC(C)(C)O)s2)o1
[3]
  IC50: 940 nM
[11]
  IC50: 210 nM
[1]
  IC50: 180 nM
[2]
  IC50: 700 nM
[18]
  IC50: 8 nM

## CC(C)(O)Cn1/c(=N/C(=O)c2ccc(-c3cn[nH]c3)s2)[nH]c2cc(CN3CCOCC3)ccc21
[3]
  IC50: 220 nM
[11]
  IC50: 13 nM
[1]
  IC50: 230 nM
[2]
  IC50: 320 nM
[18]
  IC50: 2 nM

## CNCc1ccc2c(c1)[nH]/c(=N\C(=O)c1ccc(-c3cn[nH]c3)s1)n2CC(C)(C)O
[2]
  IC50: 500 nM

## CC(C)(O)Cn1/c(=N/C(=O)c2ccc(-c3cn[nH]c3)s2)[nH]c2cc(CN3CCCCC3CO)ccc21 (centres undefined)
[3]
  IC50: 660 nM
[11]
  IC50: 58 nM
[2]
  IC50: 1100 nM
[18]
  IC50: 3 nM

## CN(Cc1cccnc1)Cc1ccc2c(c1)[nH]/c(=N\C(=O)c1ccc(-c3cn[nH]c3)s1)n2CC(C)(C)O
[1]
  IC50: 91 nM
[2]
  IC50: 310 nM

## CC(C)(O)Cn1c(NC(=O)c2ccc(-c3cn[nH]c3)s2)nc2cc(CNc3ccccc3)ccc21
[3]
  IC50: 75 nM
[11]
  IC50: 21 nM
[1]
  IC50: 150 nM
[2]
  IC50: 1700 nM
[18]
  IC50: 2 nM

## CN(Cc1ccc2c(c1)[nH]/c(=N\C(=O)c1ccc(-c3cn[nH]c3)s1)n2CC(C)(C)O)c1ccccc1
[2]
  IC50: 5500 nM

## CC(C)(O)Cn1/c(=N/C(=O)c2ccc(-c3cn[nH]c3)s2)[nH]c2cc(CN3CCCCC3)ccc21
[3]
  IC50: 250 nM
[11]
  IC50: 11 nM
[1]
  IC50: 120 nM
[2]
  IC50: 550 nM
[18]
  IC50: 3 nM

## CN(C)CCN(C)Cc1ccc2c(c1)[nH]/c(=N\C(=O)c1ccc(-c3cn[nH]c3)s1)n2CC(C)(C)O
[1]
  IC50: 150 nM
[2]
  IC50: 390 nM

## CC(C)(O)Cn1/c(=N/C(=O)c2ccc(-c3cn[nH]c3)s2)[nH]c2cc(CNCc3ccccc3)ccc21
[1]
  IC50: 37 nM
[2]
  IC50: 480 nM

## Cc1ncc(-c2ccc(C(=O)Nc3nc4cc(N(C)C(=O)c5ccccc5)ccc4n3CC(C)(C)O)s2)o1
[3]
  IC50: 200 nM
[20]
  fraction unbound: 0.013
[11]
  IC50: 110 nM
[12]
  IC50: 10000 nM
[1]
  IC50: 440 nM
[2]
  IC50: 940 nM
[21]
  solubility: 2 µg/mL (≈ 3.78 µM)
[18]
  IC50: 3 nM

## CCC(C)NCc1ccc2c(c1)nc(NC(=O)c1ccc(-c3cn[nH]c3)s1)n2CC(C)(C)O (centres undefined)
[3]
  IC50: 390 nM
[11]
  IC50: 25 nM
[1]
  IC50: 23 nM
[2]
  IC50: 600 nM
[18]
  IC50: 2 nM

## CC(C)(O)Cn1c(NC(=O)c2ccc(-c3cn[nH]c3)s2)nc2cc(CNC3CCCCC3)ccc21
[3]
  IC50: 99 nM
[11]
  IC50: 20 nM
[1]
  IC50: 93 nM
[2]
  IC50: 400 nM
[18]
  IC50: 1 nM

## CN(C)Cc1ccc2c(c1)[nH]/c(=N\C(=O)c1ccc(-c3cn[nH]c3)s1)n2CC(C)(C)O
[1]
  IC50: 130 nM

## CN(Cc1ccc2c(c1)nc(NC(=O)c1ccc(-c3cn[nH]c3)s1)n2CC(C)(C)O)C1CCCCC1
[3]
  IC50: 160 nM
[11]
  IC50: 13 nM
[1]
  IC50: 59 nM
[2]
  IC50: 480 nM
[18]
  IC50: 2 nM
